PubChem BioAssay (NCI)
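Cells were grown in 96-well plates and exposed to each compound for 48 hours at five concentrations; endpoints were interpolated linearly between bracketing concentrations, or set to the highest concentration if not reached. GI50 = concentration required for 50% inhibition of growth. At the TGI there is no net growth.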

Legend:
Experiment in all cases: growth of human tumour cells (NCI), 48 h
SK-MEL-28 melanoma = tested on: SK-MEL-28 melanoma
SR leukemia = tested on: SR leukemia
CCRF-CEM leukemia = tested on: CCRF-CEM leukemia
SN12C renal = tested on: SN12C renal
M14 melanoma = tested on: M14 melanoma
MALME-3M melanoma = tested on: MALME-3M melanoma
NCI/ADR-RES ovarian = tested on: NCI/ADR-RES ovarian
KM12 colon = tested on: KM12 colon
MOLT-4 leukemia = tested on: MOLT-4 leukemia
HCT-116 colon = tested on: HCT-116 colon
A549 NSCLC = tested on: A549 NSCLC
786-0 renal = tested on: 786-0 renal
OVCAR-8 ovarian = tested on: OVCAR-8 ovarian
PC-3 prostate = tested on: PC-3 prostate
HOP-62 NSCLC = tested on: HOP-62 NSCLC
LOX IMVI melanoma = tested on: LOX IMVI melanoma
NCI-H23 lung = tested on: NCI-H23 lung
SW-620 colon = tested on: SW-620 colon
RPMI-8226 leukemia = tested on: RPMI-8226 leukemia
SK-MEL-5 melanoma = tested on: SK-MEL-5 melanoma
IGROV1 ovarian = tested on: IGROV1 ovarian
UACC-62 melanoma = tested on: UACC-62 melanoma
HS 578T breast = tested on: HS 578T breast
COLO 205 colon = tested on: COLO 205 colon
OVCAR-5 ovarian = tested on: OVCAR-5 ovarian
SF-268 CNS = tested on: SF-268 CNS
OVCAR-4 ovarian = tested on: OVCAR-4 ovarian
SF-295 CNS = tested on: SF-295 CNS
UACC-257 melanoma = tested on: UACC-257 melanoma
HL-60(TB) leukemia = tested on: HL-60(TB) leukemia
SK-OV-3 ovarian = tested on: SK-OV-3 ovarian
HCT-15 colon = tested on: HCT-15 colon
NCI-H522 lung = tested on: NCI-H522 lung
OVCAR-3 ovarian = tested on: OVCAR-3 ovarian
EKVX NSCLC = tested on: EKVX NSCLC
CAKI-1 renal = tested on: CAKI-1 renal
NCI-H460 lung = tested on: NCI-H460 lung
T-47D breast = tested on: T-47D breast
NCI-H226 lung = tested on: NCI-H226 lung
SK-MEL-2 melanoma = tested on: SK-MEL-2 melanoma
A498 renal = tested on: A498 renal
MCF7 breast = tested on: MCF7 breast
RXF 393 renal = tested on: RXF 393 renal
DU-145 prostate = tested on: DU-145 prostate
UO-31 renal = tested on: UO-31 renal
K-562 leukemia = tested on: K-562 leukemia
U251 CNS = tested on: U251 CNS
MDA-MB-435 = tested on: MDA-MB-435
SNB-19 CNS = tested on: SNB-19 CNS
TK-10 renal = tested on: TK-10 renal
MDA-MB-231 breast = tested on: MDA-MB-231 breast
SF-539 CNS = tested on: SF-539 CNS

SMILES: CCOC(=O)/C(C#N)=C\C=C(\Sc1nc2ccccc2s1)c1ccc(Cl)cc1
- GI50 (SK-MEL-28 melanoma): 25.5 µM
- TGI (SK-MEL-28 melanoma): 69.5 µM
- GI50 (SR leukemia): 4.91 µM
- TGI (SR leukemia): 46.9 µM
- GI50 (CCRF-CEM leukemia): 2.28 µM
- TGI (CCRF-CEM leukemia): 9.5 µM
- GI50 (SN12C renal): 19.9 µM
- TGI (SN12C renal): 45.2 µM
- GI50 (M14 melanoma): 26.4 µM
- TGI (M14 melanoma): 54.3 µM
- GI50 (MALME-3M melanoma): 19.4 µM
- TGI (MALME-3M melanoma): 37.9 µM
- GI50 (NCI/ADR-RES ovarian): 27.5 µM
- TGI (NCI/ADR-RES ovarian): 61.2 µM
- GI50 (KM12 colon): 38 µM
- TGI (KM12 colon): > 100 µM
- GI50 (MOLT-4 leukemia): 3.88 µM
- TGI (MOLT-4 leukemia): > 100 µM
- GI50 (HCT-116 colon): 17.1 µM
- TGI (HCT-116 colon): 33.1 µM
- GI50 (A549 NSCLC): > 100 µM
- TGI (A549 NSCLC): > 100 µM
- GI50 (786-0 renal): 19.3 µM
- TGI (786-0 renal): 36.3 µM
- GI50 (OVCAR-8 ovarian): 30.4 µM
- TGI (OVCAR-8 ovarian): 83.9 µM
- GI50 (PC-3 prostate): 13.5 µM
- TGI (PC-3 prostate): 26.3 µM
- GI50 (HOP-62 NSCLC): 29.1 µM
- TGI (HOP-62 NSCLC): 72.2 µM
- GI50 (LOX IMVI melanoma): 10.9 µM
- TGI (LOX IMVI melanoma): > 100 µM
- GI50 (NCI-H23 lung): 20.9 µM
- TGI (NCI-H23 lung): 38.9 µM
- GI50 (SW-620 colon): 14.3 µM
- TGI (SW-620 colon): 39.2 µM
- GI50 (RPMI-8226 leukemia): 2.47 µM
- TGI (RPMI-8226 leukemia): 14 µM
- GI50 (SK-MEL-5 melanoma): 15.1 µM
- TGI (SK-MEL-5 melanoma): 31.9 µM
- GI50 (IGROV1 ovarian): 18.8 µM
- TGI (IGROV1 ovarian): 37.6 µM
- GI50 (UACC-62 melanoma): 29.8 µM
- TGI (UACC-62 melanoma): 81.5 µM
- GI50 (HS 578T breast): 31.6 µM
- TGI (HS 578T breast): 68 µM
- GI50 (COLO 205 colon): 20.1 µM
- TGI (COLO 205 colon): 42.8 µM
- GI50 (OVCAR-5 ovarian): > 100 µM
- TGI (OVCAR-5 ovarian): > 100 µM
- GI50 (SF-268 CNS): 31.8 µM
- TGI (SF-268 CNS): > 100 µM
- GI50 (OVCAR-4 ovarian): 22 µM
- TGI (OVCAR-4 ovarian): 57.8 µM
- GI50 (SF-295 CNS): 37.9 µM
- TGI (SF-295 CNS): > 100 µM
- GI50 (UACC-257 melanoma): 13.7 µM
- TGI (UACC-257 melanoma): 46.8 µM
- GI50 (HL-60(TB) leukemia): 24.2 µM
- TGI (HL-60(TB) leukemia): > 100 µM
- GI50 (SK-OV-3 ovarian): 39.6 µM
- TGI (SK-OV-3 ovarian): > 100 µM
- GI50 (HCT-15 colon): 16.4 µM
- TGI (HCT-15 colon): 45.2 µM
- GI50 (NCI-H522 lung): 18.5 µM
- TGI (NCI-H522 lung): 41.4 µM
- GI50 (OVCAR-3 ovarian): 14.4 µM
- TGI (OVCAR-3 ovarian): 27.5 µM
- GI50 (EKVX NSCLC): 14.8 µM
- TGI (EKVX NSCLC): 31.6 µM
- GI50 (CAKI-1 renal): 19.5 µM
- TGI (CAKI-1 renal): 41.4 µM
- GI50 (NCI-H460 lung): 80.8 µM
- TGI (NCI-H460 lung): > 100 µM
- GI50 (T-47D breast): 20.3 µM
- TGI (T-47D breast): 45.1 µM
- GI50 (NCI-H226 lung): 24 µM
- TGI (NCI-H226 lung): 46.7 µM
- GI50 (SK-MEL-2 melanoma): 14.8 µM
- TGI (SK-MEL-2 melanoma): 33.5 µM
- GI50 (A498 renal): 27.7 µM
- TGI (A498 renal): 72.5 µM
- GI50 (MCF7 breast): 29.1 µM
- TGI (MCF7 breast): 84.5 µM
- GI50 (RXF 393 renal): 18.3 µM
- TGI (RXF 393 renal): 37.6 µM
- GI50 (DU-145 prostate): 18.7 µM
- TGI (DU-145 prostate): 35.4 µM
- GI50 (UO-31 renal): 17 µM
- TGI (UO-31 renal): 35.4 µM
- GI50 (K-562 leukemia): 20.2 µM
- TGI (K-562 leukemia): > 100 µM
- GI50 (U251 CNS): 29 µM
- TGI (U251 CNS): > 100 µM
- GI50 (MDA-MB-435): 16.8 µM
- TGI (MDA-MB-435): 35.3 µM
- GI50 (SNB-19 CNS): 66.6 µM
- TGI (SNB-19 CNS): > 100 µM
- GI50 (TK-10 renal): 20 µM
- TGI (TK-10 renal): 37.3 µM
- GI50 (MDA-MB-231 breast): 50.9 µM
- TGI (MDA-MB-231 breast): > 100 µM
- GI50 (SF-539 CNS): 22.1 µM
- TGI (SF-539 CNS): 40.8 µM
